Data reported in patent US9840470B2, “Targeting GLI proteins in human cancer by small molecules” (The Regents of the University of California, priority 2013, dated 2017).

Tests used:
[1] = test system: melanoma MelJuso; test: In vivo efficacy, mouse xenograft model (melanoma MelJuso)
Protocol: (§1) The administered compounds were tested in vivo in the mouse xenograft model bearing human cancer cells. Briefly, female athymic nude mice strain NCRNU-M (5-10 weeks old, 20-25 grams in weight; Taconic, Germantown, N.Y.) was maintained in pathogen-free conditions. Three human cancer cell lines: NSCLC A549, melanoma MelJuso, and mesothelioma MS-1 were used. Five or ten mice were used in each group and injected s.c. with 3×10^6 cancer cells in the dorsal area in a volume of 100 μl. After inoculation, human cancer cells were allowed to grow in mice for 10-13 days to become visible tumor nodules. Animals were then injected with a compound of the embodiments at a dose of 50 mg/kg body weight (1 mg/mouse per day). Vehicle alone was used as control. The compounds and controls were adjusted in 40 ul volume for i.p. injection in the abdomens of the mice. Injections were performed daily around the same time for 14 days. Tumors were allowed to grow for 1-2 additional weeks after completion of the compound treatments. Tumor size was measured every three to four days, and tumor volumes were calculated using width (x) and length (y) (x^2y/2, where x<y). Throughout this period, general toxicity of the treatments was also monitored by measuring body weight of the mice. Data was presented as mean values (±S.D.).
In vivo efficacy study of Compounds 1, 2, 4, and 6 were performed using a Mouse Xenograft Model (Melanoma MelJuso). Mice were injected s.c. with 3×10^6 cells in the dorsal area in a volume of 100 μl. 13 days after inoculation, the mice started receiving treatments with the administered compound at a dose of 50 mg/kg body weight daily for 14 days (n=10). Vehicle alone was used as control (n=10). The administered compounds and vehicle were adjusted in a volume of 40 μl for i.p. injection in the abdomens of the mice. Tumor size and tumor volumes were calculated as described above.

[2] = test system: mesothelioma MS-1; test: In vivo efficacy, mouse xenograft model (mesothelioma MS-1); settings: 50 mg/kg body weight i.p. daily for 14 days, from ten days after inoculation
Protocol: as §1, with “Tumors were allowed to grow for 1-2 additional weeks after completion of the compound treatments.” left out, “Data was presented as mean values (±S.D.).” left out
In vivo efficacy study of Compounds 1 and 4 were performed using a Mouse Xenograft Model (Mesothelioma MS-1). […] Tumor sizes was measured twice weekly until the completion of the experiments. […]

[3] = test system: Hedgehog signaling pathway; test: Quantitative RT-PCR of Hh pathway genes in xenograft tumors; type: in vivo, mouse; settings: Melanoma tumor (MelJuso), pooled tumor from two mice
Protocol: Total RNA was isolated using Qiagen RNeasy Mini Kit (Valencia, Calif.). Hybridization probes and primers (Table 1) were purchased from Applied Biosystems (ABI, Foster City, Calif.). cDNA synthesis and Taqman® PCR were performed according to the manufactures' protocols. The gene expression was assayed in triplicate in ABI 7300 Real-time PCR System. Samples were normalized to their housekeeping gene GAPDH and then calculated by using 2^−dct method.
To examine whether Compounds 1, 2, 4, and 6 suppressed tumor growth through inhibition of the Hedgehog signaling pathway in vivo, expression of the key components and direct target genes of the Hh pathway (e.g. Gli1, Gli2, Gli3, HHIP and Cyclin D1) were analyzed by quantitative real-time RT-PCR using total RNA isolated from the xenograft tumors. GAPDH served as a control. This RT-PCR analysis was performed using a “pooled” tumor from two randomly selected mice of each group with reasonable size tumors. […] The results are shown in FIG. 4, where C is control and V is vehicle.

[4] = Additional toxicity study: body weight at different doses; type: in vivo, mouse; settings: i.p. 25, 50, and 100 mg/kg body weight for 6 consecutive days
Protocol: Each dosing group contained 3 mice. The body weight of mice was measured using a scale. Results are the means±SD (error bars).
As preliminary in vivo toxicity study of Compounds 1, 2, 4, and 6, it was examined if there were changes of leukocyte population and loss of body weight in the mice after the treatment. At the completion of the in vivo studies as described herein, leukocytes (WBC: white blood cell, NE: neutrophil, LY: lymphocyte, MO: monocyte, EO: eosinophil, BA: basophil) from each animal from all treatment groups were collected and leukocyte population was counted through a blood cell counter. Body weights of control groups (n=10) and the treated group (n=10) were measured using a scale during the course of drug administration. […] In an additional toxicity study, effect of different doses of compounds 4 and 6 on the body weight of mice was examined. The compounds were i.p. injected in the abdomens at 3 different doses: 25, 50, and 100 mg/kg body weight to mice (3 mice per dosing group) for 6 consecutive days.

[5] = test system: human MM cell lines (mesothelioma cells); test: Combination treatment with chemotherapies, MTS proliferation assay, mesothelioma cells; type: cell-based; settings: 72 hours, Combination Index
From the text: Another assay for determining the number of viable cells in proliferation or cytotoxicity assays is the MTS assay, a colorimetric method. MTS assay reagents are commercially available (Promega Corp., Madison, Wis.). The reagent contains a tetrazolium compound [3-(4,5-dimethylthiazol-2-yl)-5-(3-carboxymethoxyphenyl)-2-(4-sulfophenyl)-2H-tetrazolium, inner salt; MTS] and an electron coupling reagent (phenazine ethosulfate; PES). PES has enhanced chemical stability, which allows it to be combined with MTS to form a stable solution. The MTS tetrazolium compound (Owen's reagent) is bioreduced by cells into a colored formazan product that is soluble in tissue culture medium. This conversion may be accomplished by NADPH or NADH produced by dehydrogenase enzymes in metabolically active cells. The quantity of formazan product as measured by the absorbance at 490 nm is directly proportional to the number of living cells in culture. Because the MTS formazan product is soluble in tissue culture medium, this assay requires fewer steps than procedures that use tetrazolium compounds such as MTT. The formazan product of MTT reduction is a crystalline precipitate that requires an additional step in the procedure to dissolve the crystals before recording absorbance readings at 570 nm.
Combination treatments of the Compounds with several chemotherapies: erlotinib (Tarceva®), PI3K inhibitor LY294002, TGFβ inhibitor SB431542, and pemetrexed (Alimta®) were performed in human NSCLC and MM cell lines (FIGS. 12-17). In all experiments, NSCLC and MM cell lines were treated with different doses of each compound or combination for 72 hours, and MTS assays were performed to determine the cell proliferations. Combination Index (CI), calculated by CalcuSyn software (Biosoft, Cambridge, UK), was applied to describe the effect of the combination effects of two compounds, where CI<1 indicates Synergism, CI=1 indicates Additive effects, and CI>1 indicates Antagonism. Student's t-tests were applied for statistical analysis.

CCCC1C(C(=O)NCCCC(C)(C)CO)C(c2ccc(F)cc2)=NN1c1ccccc1 (stereo not drawn) [Compound 4, 3-(4-fluoro-phenyl)-1-phenyl-5-propyl-4,5-dihydro-1H-pyrazole-4-carboxylic acid (5-hydroxy-4,4-dimethyl-pentyl)-amide]
tumor growth ([1]; 50 mg/kg body weight i.p. daily for 14 days, from 13 days after inoculation): dramatically suppressed
tumor weight (FIG. 1) ([1]; melanoma MelJuso xenograft, after treatment): significantly decreased
tumor weight compared to the control group [2]: decreased
Hh signaling (expression of Gli1, Gli2, Gli3, HHIP, Cyclin D1) [3]: inhibited
loss of body weight [4]: no noticeable loss of the body weight
combination effect with erlotinib (Tarceva) [5]: synergy
